Reference: patent US10307371B2 (AI Therapeutics, Inc., priority 2014, dated 2019)
Several values for one entry are separate records, joined by “and”; a condition that tells them apart may be missing. Identical values can stand only once. Entries after “also recorded” stand apart in the source; their conditions may differ.

Assays:
[1] = Concentration of rapamycin in blood and lung after oropharyngeal aspiration (OPA) or oral gavage, LC-MS/MS; format: in vivo, C57BL/6 mice; details: 1 mg/kg
Description: Each animal was weighed prior to dosing to determine the amount of dose to be administered. A single gavage dose was administered using a 100-μL glass syringe (Hamilton, Reno, Nev.) fitted with a ball-tipped 20-G stainless steel gavage dosing needle (Popper & Sons Inc., New Hyde Park, N.Y.). The dose administered to each animal was determined from the weight of the full syringe minus that of the empty syringe. The dosing time was recorded. Dosing of animals was spaced apart to allow blood collection at the appropriate times. The dose formulations administered to each group are shown below.
Each mouse was anesthetized with isoflurane, and restrained with the mouth open. The tongue was held to one side of the mouth with forceps, and the dose was slowly injected into the distal part of the oral cavity. The nostrils were covered with a finger for two breaths to ensure aspiration (Rao et al., 2003).
Collection of Blood and Lung Samples: At study termination (1 or 72 h after dosing), mice were anesthetized by exposure to CO2, and blood was collected by cardiac puncture with dipotassium EDTA as anticoagulant. Lung tissue was excised and divided into the right and left lung. The left lung was used for analysis, and the right lung flash frozen in liquid nitrogen and stored at −70° C. for further analysis.
Triamcinolone was used as internal standard.
Lung homogenate was prepared by homogenization of weighed lung samples with 2.8-mm ball bearings in a homogenizer with tissue+deionized water (1:3 w/v) in a SPEX SamplePrep 2010 Geno/Grinder.
The concentrations of standards were arranged so that each standard came from an alternate stock standard. A six-point calibration curve, each made in triplicate, was employed for analyte quantitation. A simple linear regression model with or without weighting was employed for curve fitting. The concentration range determined was from 1-2000 ng/mL in blood and 2-2000 ng/mL in lung homogenate.
Thirty (30) μL of matrix, 30 μL of spiking solution (methanol for blanks and samples), 10 μL Internal standard solution (in MeOH) and 90 μL of MeOH were pipetted into microcentrifuge tubes, vortexed briefly, then centrifuged for 6 min at 10,000 RPM at ˜4° C. Aliquots (90 μL) of supernatant were transferred to LC vial inserts, and then analyzed by LC-MS/MS (Table 2).

[2] = Particle size distribution by laser diffraction after jet milling or wet polishing; format: physicochemical
Description: For jet milling, a lab scale MCOne unit from Jetpharma was used with the following operating conditions: venturi pressure 2-4 bar, milling pressure 3-5 bar, feed rate 90 g/h. For wet polishing, feed suspensions were prepared using purified water. A microfluidics high pressure homogenizer was used for the size reduction step and the resulting suspension was spray-dried. Details of the wet polishing process are set forth below.
The high pressure homogenizer used for the size reduction step of the wet polishing process was a pilot-scale Microfluidics High Pressure Homogenizer equipped with an auxiliary processing module (200 micron) and a 100 micron interaction chamber was used. The unit was operated at ˜455 bar (˜30 bar in the intensifier module hydraulic pressure). After microfluidization the fluid was removed by spray drying to generate a dry powder. A laboratory scale spray dryer, SD45 (BÜCHI, model B-290 Advanced) was equipped with a two fluid nozzle (cap and diameter were 1.4 and 0.7 mm, respectively). Two cyclones in series were used (being the first the standard Buchi cyclone and the second the high-performance Buchi cyclone) to collect the dried product. The spray drying unit was operated with nitrogen and in single pass mode, i.e. without recirculation of the drying nitrogen. The aspirator, blowing nitrogen, was set at 100% of its capacity (flow rate at maximum capacity is approximately 40 kg/h). The flow rate of the atomization nitrogen was adjusted to a value in the rotameter of 40±5 mm. Before feeding the product suspension, the spray dryer was stabilized with purified water, during which the flow rate was adjusted to 6 ml/min (20% in the peristaltic pump). The inlet temperature was adjusted to achieve the target outlet temperature (45° C.). After stabilization of the temperatures, the feed of the spray dryer was commuted from purified water to the product suspension (keeping the same flow rate used during stabilization) and the inlet temperature once again adjusted in order to achieve the target outlet temperature. At the end of the stock suspension, the feed was once more commuted to purified water in order to rinse the feed line and perform a controlled shut down. The dry product in the collection flasks under both cyclones was weighed and the yield calculated as the mass percentage of the dry product in relation to the total solids in the suspension fed to the high pressure homogenizer.
Particle size distribution was analyzed by laser diffraction. Solid state characterization (for polymorphic form and purity) was performed by high pressure liquid chromatography (HPLC), X-ray powder diffraction (XRPD), and differential scanning calorimetry (mDSC). Water content was determined by the Karl Fischer method.

[3] = human, cited from earlier work
[4] = cited from earlier work
angiomyolipomas = details: oral, 20 patients, cited from earlier work
renal angiomyolipomas = details: oral, 16 patients, cited from earlier work
[5] = study of 10 LAM patients; cited from earlier work
[6] = oral, 12 months, cited from earlier work
mTOR = test: S6 phosphorylation in mouse lung as biomarker for mTOR activity; details: lung tissue
Description: To validate this approach, we used the presence of phosphorylated S6 protein in murine lung tissue as a biomarker for mTOR activity.

[7] = Observation for adverse effects / clinical signs after OPA or gavage dosing
Description: An additional group of 6 mice received vehicle only (10% ethanol in water). […] At the 72-h necropsy, blood was obtained by cardiac puncture and the lungs removed.
The weight of dose solution administered was determined by weighing the charged syringe with dose solution prior to dosing, and weighing following dosing. […] The time of dosing was recorded as 0. Animals in groups 2 and 3 were euthanized at 1 h after dosing.

[8] = cancer patients administered temsirolimus or everolimus; cited from earlier work
[9] = Gavage (Rapamune Oral), 1 h post-dose, individual animals
[10] = OPA, 1 h post-dose, individual animals
[11] = OPA, 72 h post-dose, individual animals

## CO[C@H]1C[C@@H]2CC[C@@H](C)[C@@](O)(O2)C(=O)C(=O)N2CCCC[C@H]2C(=O)O[C@H]([C@H](C)C[C@@H]2CC[C@@H](O)[C@H](OC)C2)CC(=O)[C@H](C)/C=C(\C)[C@@H](O)[C@@H](OC)C(=O)[C@H](C)C[C@H](C)/C=C/C=C/C=C/1C [Rapamycin, (3S,6R,7E,9R,10R,12R,14S,15E,17E,19E,21S,23S,26R,27R,34aS)-9,10,12,13, -14,21,22,23,24,25,26,27,32,33,34,34a-hexadecahydro-9,27-dihydroxy-3-[(1R)-2-[(1S,3R,4R)-4-hydroxy-3-methoxycyclohexyl]-1-methylethyl]-10,21-dimethox-y-6,8,12,14,20,26-hexamethyl-23,27-epoxy-3H-pyrido[2,1-c][1,4]oxaazacyclohentriacontine-1,5,11,28,29(4H,6H,31H)-pentone]
[1]; [9]
  Blood: 49.85 ng/mL and 11.3 ng/mL and 28.7 ng/mL and 28.35 ng/mL and 2.845 ng/mL and 19.35 ng/mL
  Lung (ng/g tissue): 109.8 ng/g tissue and 24.66 ng/g tissue and 122.8 ng/g tissue and 54 ng/g tissue and <LOQ and 43 ng/g tissue
[1]; [10]
  Blood: 622 ng/mL and 364.5 ng/mL and 937 ng/mL and 848.5 ng/mL and 615.5 ng/mL and 455.5 ng/mL
  Lung (ng/g tissue): 4500 ng/g tissue and 1874 ng/g tissue and 4006 ng/g tissue and 4700 ng/g tissue and 5040 ng/g tissue and 2642 ng/g tissue
[1]; OPA, 72 h post-dose
  Rapamycin in blood, group statement: below the limit of quantitation; also recorded: undetectable
[1]; [11]
  Blood (ng/ml): <ELOQ
  Lung (ng/g tissue): 11.4 ng/g tissue and 15.7 ng/g tissue and 10.8 ng/g tissue and 11.9 ng/g tissue and 13.6 ng/g tissue
[1]; oral (gavage), 72 hrs
  Rapamycin in blood: undetectable
  Rapamycin in lung: undetectable
[2]; jet milling
  PSD Dv10: 1.5 μm and 1.51 μm
  PSD Dv50: 2.7 μm and 2.74 μm
  PSD Dv90: 4.9 μm and 4.91 μm
[2]; wet polishing
  PSD Dv10: 1.0 μm and 1.05 μm
  PSD Dv50: 2.4 μm and 2.42 μm
  PSD Dv90: 5.0 μm and 4.97 μm
[3]; Rapamune NDA 21-110 and 21-083
  Volume of distribution: 780 L
[3]; assuming equivalency to rapamycin IV dosing
  Elimination half-life: 42.3 h
[4]
  Chemical stability of the amorphous form: extremely chemically unstable
angiomyolipomas; 24 months
  Serious adverse events: diarrhea, pneumonia, pyelonephritis, cellulitis (from an animal bite), stomatitis, and hemorrhage of a renal angiomyolipoma
angiomyolipomas; during the treatment period
  Angiomyolipoma response: regressed “somewhat”
Renal angiomyolipomas; up to 2 years
  Renal angiomyolipoma response: sustained regression of renal angiomyolipomas
  Steady state blood levels: 3 to 10 ng/mL
Renal angiomyolipomas
  Adverse events: oral mucositis, respiratory infections, and proteinuria
[5]
  Patients discontinued because of serious recurrent lower respiratory tract infection or sirolimus-induced pneumonitis: 3 patients
[6]; blood levels 5-15 ng/ml
  Lung function: stabilized lung function
  Serum VEGF-D levels: reduced serum VEGF-D levels
[6]
  Blood levels at which patients were maintained: 5 to 15 ng/mL
mTOR
  Drug level in the lung that substantially abrogates mTOR signaling (pS6): about 70 ng/g
[7]; OPA or gavage, 1 mg/kg, up to 72 h after dosing, all groups
  Clinical signs: No significant clinical signs were observed
[7]; OPA, 1 mg/kg, 72 h period following dosing
  Adverse effects: No adverse effects were observed
[7]; relatively high amounts delivered directly to lung (OPA, 1 mg/kg)
  Acute toxicity to lung tissue: not acutely toxic to lung tissue

## CO[C@H]1C[C@@H]2CC[C@@H](C)[C@@](O)(O2)C(=O)C(=O)N2CCCC[C@H]2C(=O)O[C@H]([C@H](C)C[C@@H]2CC[C@@H](OCCO)[C@H](OC)C2)CC(=O)[C@H](C)/C=C(\C)[C@@H](O)[C@@H](OC)C(=O)[C@H](C)C[C@H](C)/C=C/C=C/C=C/1C [everolimus]
[8]
  Cancer patients who may experience mild grade pulmonary toxicity: 10%

## CO[C@H]1C[C@@H]2CC[C@@H](C)[C@@](O)(O2)C(=O)C(=O)N2CCCC[C@H]2C(=O)O[C@H]([C@H](C)C[C@@H]2CC[C@@H](OC(=O)C(C)(CO)CO)[C@H](OC)C2)CC(=O)[C@H](C)/C=C(\C)[C@@H](O)[C@@H](OC)C(=O)[C@H](C)C[C@H](C)/C=C/C=C/C=C/1C [temsirolimus]
[8]
  Cancer patients who may experience mild grade pulmonary toxicity: 10%
